# Measurements from patent US20240122180A1, “FUNGICIDAL HALOMETHYL KETONES AND HYDRATES AND THEIR MIXTURES” (FMC Corporation, priority 2020, published 2024).
# Marks after values point to notes of the source that are not given here.
# Columns and labels:
# Type in all cases: in vivo
# [1] = test system: Uncinula necator (the causal agent of grape powdery mildew); assay: Test C: preventive spray on grape seedlings, disease rating (100 = 100% control; * 50 ppm, ** 10 ppm, *** 250 ppm); details: 100 = 100% disease control
# Excerpt: (§1) General protocol for preparing test suspensions for Tests A-E: the test compounds were first dissolved in acetone in an amount equal to 3% of the final volume and then suspended at the desired concentration (in ppm) in acetone and purified water (50/50 mix by volume) containing 250 ppm of the surfactant […] (polyhydric alcohol esters). The resulting test suspensions were then used in Tests A-E.
# The test solution was sprayed to the point of run-off on grape seedlings. The following day the seedlings were inoculated with a spore suspension of Uncinula necator (the causal agent of grape powdery mildew) and incubated in a growth chamber at 20° C. for 12 days, after which time disease ratings were made.
# (§2) Results for Tests A-E are given in Table A. In the Table, a rating of 100 indicates 100% disease control and a rating of 0 indicates no disease control (relative to the controls). An asterisk “*” or a double asterisk “**” or a triple asterisk “***” next to the rating value indicates a 50 ppm, 10 ppm and 250 ppm test suspension was used, respectively. A dash (-) indicates the compound was not tested.
# [2] = test system: Puccinia recondita f. sp. tritici (the causal agent of wheat leaf rust); assay: Test B: preventive spray on wheat seedlings, disease rating (100 = 100% control; * 50 ppm, ** 10 ppm, *** 250 ppm); details: 100 = 100% disease control; for pest or weed control at 10 ppm / pest or weed control at 50 ppm: Puccinia recondita
# Summary of the method: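 Preventive test: Puccinia recondita f. sp. tritici spores were inoculated one day after run-off spraying of wheat seedlings with test suspension (acetone/water 50/50, 250 ppm PEG400). After 24 h in saturated air and 6 days in a growth chamber, both at 20° C, control was scored 0–100 versus untreated plants.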
# [3] = test system: Phakopsora pachyrhizi (the causal agent of Asian soybean rust); assay: Test A: preventive spray on soybean seedlings, visual disease rating (100 = 100% control; * 50 ppm, ** 10 ppm, *** 250 ppm); details: 100 = 100% disease control
# Summary of the method: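 Preventive test: one day after spraying compound (acetone/water suspension, 250 ppm PEG400), seedlings received rust spore inoculum, 24 h in saturated air then 8 days in growth chamber, both at 22 °C. Disease control scored visually, 100 = complete, 0 = none, relative to untreated controls.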
# [4] = test system: Blumeria graminis f. sp. tritici (the causal agent of wheat powdery mildew); assay: Test E: preventive spray on wheat seedlings, visual disease rating (100 = 100% control; * 50 ppm, ** 10 ppm, *** 250 ppm); details: 100 = 100% disease control; for Test E disease control rating / pest or weed control at 250 ppm: 250 ppm test suspension
# Excerpt: as §1
# The test suspension was sprayed to the point of run-off on wheat seedlings. The following day the seedlings were inoculated with a spore dust of Blumeria graminis f. sp. tritici, (also known as Erysiphe graminis f. sp. tritici, the causal agent of wheat powdery mildew) and incubated in a growth chamber at 20° C. for 8 days, after which time visual disease ratings were made.
# as §2
# [5] = test system: Zymoseptoria tritici (the causal agent of wheat leaf blotch); assay: Test D: preventive spray on wheat seedlings, disease rating (100 = 100% control; * 50 ppm, ** 10 ppm, *** 250 ppm); details: 100 = 100% disease control; for Test D disease control rating / pest or weed control at 250 ppm: 250 ppm test suspension
# Excerpt: as §1
# The test solution was sprayed to the point of run-off on wheat seedlings. The following day the seedlings were inoculated with a spore suspension of Zymoseptoria tritici (the causal agent of wheat leaf blotch) and incubated in a saturated atmosphere at 24° C. for 48 h, and then moved to a growth chamber at 20° C. for 17 days, after which time disease ratings were made.
# as §2
# [6] = 250 ppm test suspension, 0 = no control
# [7] = 10 ppm test suspension, 0 = no control
# [8] = 50 ppm test suspension, 0 = no control
# [9] = 250 ppm test suspension, grape seedlings
# [10] = 10 ppm test suspension, wheat seedlings
# [11] = 10 ppm test suspension, soybean seedlings
# [12] = Erysiphe necator, 250 ppm test suspension, 0 = no control
# [13] = Phakopsora pachyrhizi, 10 ppm test suspension, 0 = no control
# [14] = Blumeria graminis, 0 = no control
# [15] = Zymoseptoria tritici, 0 = no control
# [16] = Erysiphe necator, 250 ppm test suspension, grape seedlings
# [17] = Blumeria graminis, wheat seedlings
# [18] = Zymoseptoria tritici, wheat seedlings
# [19] = Erysiphe necator, 50 ppm test suspension, 0 = no control
smiles,measurement,setting,value
CCO/C(=C\Oc1ccc(Cn2cc(C(=O)NC)cn2)cc1)C(F)(F)F [compound 414],Test C disease control rating,[1]; [6],91*** %
same,Test B disease control rating,[2]; [7],0%
same,Test A disease control rating,[3]; [7],45%
same,Test E disease control rating,[4]; 0 = no control,90*** %
same,Test D disease control rating,[5]; 0 = no control,97*** %
CCOC(=O)c1cnn(Cc2ccc(O/C=C(\OCC)C(F)(F)F)cc2F)c1 [compound 375],Test C disease control rating,[1]; [6],66*** %
same,Test B disease control rating,[2]; [8],0%
same,Test A disease control rating,[3]; [8],100%
same,Test E disease control rating,[4]; 0 = no control,99*** %
same,Test D disease control rating,[5]; 0 = no control,95*** %
O=C(NCC1CC1)c1cnc(Cc2ccc(OCC3(C(F)(F)F)OCCO3)cc2)o1 [compound 248],Test C disease control rating,[1]; [9],62*** %
same,Test B disease control rating,[2]; [10],0%
same,Test A disease control rating,[3]; [11],71%
same,Test E disease control rating,[4]; wheat seedlings,89*** %
same,Test D disease control rating,[5]; wheat seedlings,93*** %
CCOC(=O)c1cnn(Cc2c(F)c(F)c(O/C=C(\OCC)C(F)(F)F)c(F)c2F)c1 [compound 464],Test C disease control rating,[1]; [6],73*** %
same,Test B disease control rating,[2]; [8],0%
same,Test A disease control rating,[3]; [8],100%
same,Test E disease control rating,[4]; 0 = no control,99*** %
same,Test D disease control rating,[5]; 0 = no control,4*** %
N#Cc1cnn(Cc2ccc(OCC(O)(O)C(F)(F)F)cc2)c1 [compound 206],Test C disease control rating,[1]; [9],34*** %
same,Test B disease control rating,"[2]; 50 ppm test suspension, wheat seedlings",98%
same,Test A disease control rating,"[3]; 50 ppm test suspension, soybean seedlings",100%
same,Test E disease control rating,[4]; wheat seedlings,93*** %
same,Test D disease control rating,[5]; wheat seedlings,93*** %
CCO/C(=C\Oc1ccc(Cn2cc(C(=O)NCc3ncccn3)cn2)cc1)C(F)(F)F [compound 435],Test C disease control rating,[1]; [6],45*** %
same,Test B disease control rating,[2]; [8],0%
same,Test A disease control rating,[3]; [8],96%
same,Test E disease control rating,[4]; 0 = no control,81*** %
same,Test D disease control rating,[5]; 0 = no control,5*** %
O=C(NCC1CC1)c1cnc(Cc2ccc(OCC3(C(F)(F)F)OCCO3)cc2)s1 [compound 259],Test C disease control rating,[1]; [6],31*** %
same,Test B disease control rating,[2]; [7],0%
same,Test A disease control rating,[3]; [7],25%
same,Test E disease control rating,[4]; 0 = no control,83*** %
same,Test D disease control rating,[5]; 0 = no control,88*** %
CCOC(=O)c1cnn(CSc2ccc(O/C=C(\OCC)C(F)(F)F)cc2)c1 [compound 457],pest or weed control at 250 ppm,[1]; [12],73%
same,pest or weed control at 10 ppm,[2]; [7],0%
same,pest or weed control at 10 ppm,[3]; [13],89%
same,pest or weed control at 250 ppm,[4]; [14],0%
same,pest or weed control at 250 ppm,[5]; [15],7%
N#Cc1ccc(OCC2(C(F)(F)F)OCCO2)cc1 [compound 98],Test C disease control rating,[1]; [9],31%
same,Test B disease control rating,"[2]; 250 ppm test suspension, wheat seedlings",100%
same,Test A disease control rating,"[3]; 250 ppm test suspension, soybean seedlings",100%
same,Test E disease control rating,[4]; wheat seedlings,0%
same,Test D disease control rating,[5]; wheat seedlings,77%
CCOC(=O)c1cnn(Cc2ccc(C(O)CC(O)(O)C(F)(F)F)cc2)c1 (stereo not shown) [compound 51],Test C disease control rating,[1]; [9],81*** %
same,Test B disease control rating,[2]; [10],0%
same,Test A disease control rating,[3]; [11],0%
same,Test E disease control rating,[4]; wheat seedlings,0*** %
same,Test D disease control rating,[5]; wheat seedlings,3*** %
CCO/C(=C\Oc1ccc(Cn2cc(C(=O)OCC(C)=O)cn2)cc1)C(F)(F)F [compound 216],Test C disease control rating,[1]; [9],20*** %
same,Test B disease control rating,[2]; [10],0%
same,Test A disease control rating,[3]; [11],100%
same,Test E disease control rating,[4]; wheat seedlings,87*** %
same,Test D disease control rating,[5]; wheat seedlings,37*** %
"CCO/C(=C\Oc1ccc(Cn2cc(C(=O)OCCCCl)cn2)cc1)C(F)(F)F [Compound 221, 3-chloropropyl 1-[[4-[[(1Z)-2-ethoxy-3,3,3-trifluoro-1-propen-1-yl]oxy]phenyl]methyl]-1H-pyrazole-4-carboxylate]",pest or weed control at 250 ppm,[1]; [16],41%
same,pest or weed control at 10 ppm,[2]; [10],0%
same,pest or weed control at 250 ppm,[4]; [17],95%
same,pest or weed control at 250 ppm,[5]; [18],10%
O=C(COC(=O)c1cnn(Cc2ccc(OCC3(C(F)(F)F)OCCO3)cc2)c1)c1ccccc1 [compound 170],Test C disease control rating,"[1]; 50 ppm test suspension, grape seedlings",100* %
same,Test B disease control rating,[2]; [10],0%
same,Test A disease control rating,[3]; [11],100%
CCOC(=O)c1cnn(Cc2cccc(O/C=C(\OCC)C(F)(F)F)c2F)c1 [compound 301],Test C disease control rating,[1]; [8],100* %
same,Test B disease control rating,[2]; [8],0%
same,Test A disease control rating,[3]; [8],100%
CCO/C(=C\Oc1cccc(Cn2cc(C(=O)NC)cn2)c1)C(F)(F)F [compound 403],Test C disease control rating,[1]; [6],74*** %
same,Test A disease control rating,[3]; [8],54%
same,Test E disease control rating,[4]; 0 = no control,0*** %
same,Test D disease control rating,[5]; 0 = no control,17*** %
"CCOC(=O)c1cnn(COc2ccc(O/C=C(\OCC)C(F)(F)F)cc2)c1 [Compound 364, ethyl 1-[[4-[[(1Z)-2-ethoxy-3,3,3-trifluoro-1-propen-1-yl]oxy]phenoxy]methyl]-1H-pyrazole-4-carboxylate]",pest or weed control at 50 ppm,[1]; [19],100%
same,pest or weed control at 50 ppm,[2]; [8],0%
same,pest or weed control at 50 ppm,"[4]; Blumeria graminis, 50 ppm test suspension, 0 = no control",56%
same,pest or weed control at 50 ppm,"[5]; Zymoseptoria tritici, 50 ppm test suspension, 0 = no control",0%
COC(COc1ccc(Cn2cc(Br)cn2)cc1)(O[Si](C)(C)C)C(F)(F)F (stereo not shown) [compound 395],pest or weed control at 50 ppm,[1]; [19],100%
same,pest or weed control at 50 ppm,[2]; [8],100%
same,pest or weed control at 50 ppm,"[3]; Phakopsora pachyrhizi, 50 ppm test suspension, 0 = no control",100%
CCOC(=O)c1cnn(COc2ccc(O/C=C(\OCC)C(F)(F)F)c(F)c2)c1 [compound 454],pest or weed control at 10 ppm,"[1]; Erysiphe necator, 10 ppm test suspension, 0 = no control",100%
same,pest or weed control at 10 ppm,[2]; [7],0%
same,pest or weed control at 10 ppm,[3]; [13],100%
"CCCCOC(=O)c1cnn(Cc2ccc(O/C=C(\OCC)C(F)(F)F)cc2)c1 [Compound 218, butyl 1-[[4-[[(1Z)-2-ethoxy-3,3,3-trifluoro-1-propen-1-yl]oxy]phenyl]methyl]-1H-pyrazole-4-carboxylate]",pest or weed control at 250 ppm,[1]; [16],75%
same,pest or weed control at 10 ppm,[2]; [10],0%
same,pest or weed control at 250 ppm,[4]; [17],90%
same,pest or weed control at 250 ppm,[5]; [18],53%
CCO/C(=C\Oc1ccc(Cn2cc(C(=O)NCC(F)F)cn2)cc1)C(F)(F)F [compound 436],Test C disease control rating,[1]; [6],48*** %
same,Test B disease control rating,[2]; [8],0%
same,Test A disease control rating,[3]; [8],99%
same,Test E disease control rating,[4]; 0 = no control,0*** %
CCO/C(=C\Oc1cccc(Cn2cc(C(=O)NCc3ncccn3)cn2)c1)C(F)(F)F [compound 402],Test C disease control rating,[1]; [6],48*** %
same,Test A disease control rating,[3]; [8],97%
same,Test E disease control rating,[4]; 0 = no control,0*** %
same,Test D disease control rating,[5]; 0 = no control,5*** %
CCOC(=O)c1cnn(Cc2ccc(OCC3(C(F)(F)F)OCCO3)s2)c1 [compound 273],pest or weed control at 250 ppm,[1]; [12],49%
same,pest or weed control at 50 ppm,[2]; [8],0%
same,pest or weed control at 250 ppm,[4]; [14],65%
same,pest or weed control at 250 ppm,[5]; [15],20%
CCOC(=O)c1cnn(Cc2ccc(OCC(O)(O)C(F)(F)F)c(F)c2F)c1 [Compound 431],Test C disease control rating,[1]; [6],36%
same,Test E disease control rating,[4]; 0 = no control,96%
same,Test D disease control rating,[5]; 0 = no control,93%
"CCOC(=O)c1cnn(Cc2cccc(O/C=C(\OCC)C(F)(F)F)c2)c1 [Compound 265, ethyl 1-[[3-[[(1Z)-2-ethoxy-3,3,3-trifluoro-1-propen-1-yl]oxy]phenyl]methyl]-1H-pyrazole-4-carboxylate]",pest or weed control at 50 ppm,[1]; [19],98%
same,pest or weed control at 50 ppm,[2]; [8],0%
